Where two headings read alike, the source gives them in different places.
Columns and labels:
Assay in all cases: In vitro antibacterial activity (MIC), agar dilution
[1] = tested on: PSEUDOMONAS AERUGINOSA DPHD-5263; format: cell-based; details: P. aeruginosa DPHD-5263; BHI agar, 35-37 °C, 20-24 h
[2] = tested on: ENTEROBACTER AEROGENES ATCC 13048; format: cell-based; details: E. aerogenes ATCC 13048; BHI agar, 35-37 °C, 20-24 h
STR[…] 508 = format: cell-based, Streptococcus agalactiae; details: S. agalactiae CMX 508; BHI agar, 35-37 °C, 20-24 h
Procedure: (§1) Representative compounds of the present invention were assayed in vitro for antibacterial activity as follows: Twelve petri dishes containing successive aqueous dilutions of the test compound mixed with 10 mL of sterilized Brain Heart Infusion (BHI) agar (Difco 0418-01-5) were prepared. Each plate was inoculated with 1:100 (or 1:10 for slow-growing strains, such as Micrococcus and Streptococcus) dilutions of up to 32 different microorganisms, using a Steers replicator block. The inoculated plates were incubated at 35°-37° C. for 20 to 24 hours. In addition, a control plate, using BHI agar containing no test compound, was prepared and incubated at the beginning and end of each test.
(§2) An additional plate containing a compound having known susceptibility patterns for the organisms being tested and belonging to the same antibiotic class as the test compound was also prepared and incubated as a further control, as well as to provide test-to-test comparability. Erythromycin A was used for this purpose.
(§3) After incubation, each plate was examined. The minimum inhibitory concentration (MIC) was defined as the lowest concentration of drug yielding no growth, a slight haze, or sparsely isolated colonies on the inoculum spot as compared to the growth control.

[3] = tested on: PSEUDOMONAS AERUGINOSA K799/WT; format: cell-based; details: P. aeruginosa K799/WT; BHI agar, 35-37 °C, 20-24 h
ESCHERICHIA COLI H560 = format: cell-based; details: E. coli H560; BHI agar, 35-37 °C, 20-24 h
[4] = tested on: STAPHYLOCOCCUS AUREUS A5177; format: cell-based; details: S. aureus A5177; BHI agar, 35-37 °C, 20-24 h
ESCHERICHIA COLI DC-2 = format: cell-based; details: E. coli DC-2; BHI agar, 35-37 °C, 20-24 h
[5] = tested on: STREPTOCOCCUS PYOGENES EES61; format: cell-based; details: S. pyogenes EES61; BHI agar, 35-37 °C, 20-24 h
[6] = tested on: STAPHYLOCOCCUS AUREUS 1775; format: cell-based; details: S. aureus 1775; BHI agar, 35-37 °C, 20-24 h
[7] = tested on: PSEUDOMONAS AERUGINOSA DPHD-2862; format: cell-based; details: P. aeruginosa DPHD-2862; BHI agar, 35-37 °C, 20-24 h
[8] = tested on: PSEUDOMONAS AERUGINOSA K799/61; format: cell-based; details: P. aeruginosa K799/61; BHI agar, 35-37 °C, 20-24 h
ESCHERICHIA COLI KNK 437 = format: cell-based
CANDIDA ALBICANS CCH 442 = format: cell-based; details: C. albicans CCH 442; BHI agar, 35-37 °C, 20-24 h
[9] = tested on: STAPHYLOCOCCUS AUREUS A-5278; format: cell-based; details: S. aureus A-5278; BHI agar, 35-37 °C, 20-24 h
[10] = tested on: STAPHYLOCOCCUS AUREUS CMX 642A; format: cell-based; details: S. aureus CMX 642A; BHI agar, 35-37 °C, 20-24 h
[11] = tested on: STREPTOCOCCUS PYOGENES 930; format: cell-based; details: S. pyogenes 930; BHI agar, 35-37 °C, 20-24 h
[12] = tested on: STAPHYLOCOCCUS AUREUS CMX 553; format: cell-based; details: S. aureus CMX 553; BHI agar, 35-37 °C, 20-24 h
EN[…] ATCC 8043 = format: cell-based, Enterococcus faecium; details: E. faecium ATCC 8043; BHI agar, 35-37 °C, 20-24 h
Procedure: as §1, §2, §3

[13] = tested on: STREPTOCOCCUS PYOGENES PIU 2548; format: cell-based; details: S. pyogenes PIU 2548; BHI agar, 35-37 °C, 20-24 h
[14] = tested on: PSEUDOMONAS AERUGINOSA 5007; format: cell-based; details: P. aeruginosa 5007; BHI agar, 35-37 °C, 20-24 h
[15] = tested on: STAPHYLOCOCCUS AUREUS ATCC 6538P; format: cell-based; details: S. aureus ATCC 6538P; BHI agar, 35-37 °C, 20-24 h
[16] = tested on: NOCARDIA ARSTEROIDES ATCC 9970; format: cell-based; details: Nocardia ATCC 9970; BHI agar, 35-37 °C, 20-24 h
[17] = tested on: STREPTOCOCCUS BOVIS A-5169; format: cell-based; details: S. bovis A-5169; BHI agar, 35-37 °C, 20-24 h
M[…] ATCC 9341 = format: cell-based, Micrococcus luteus; details: M. luteus ATCC 9341; BHI agar, 35-37 °C, 20-24 h
Procedure: as §1, §2, §3

M[…] ATCC 4698 = format: cell-based, Micrococcus luteus; details: M. luteus ATCC 4698; BHI agar, 35-37 °C, 20-24 h
Procedure: as §1, §2, §3

[18] = E. coli KNK 437, BHI agar, 35-37 °C, 20-24 h

Row | Compound | minimum inhibitory concentration (MIC) [1] | minimum inhibitory concentration (MIC) [2] | minimum inhibitory concentration (MIC) (STR[…] 508) | minimum inhibitory concentration (MIC) [3] | minimum inhibitory concentration (MIC) (ESCHERICHIA COLI H560) | minimum inhibitory concentration (MIC) [4] | minimum inhibitory concentration (MIC) (ESCHERICHIA COLI DC-2) | minimum inhibitory concentration (MIC) [5] | minimum inhibitory concentration (MIC) [6] | minimum inhibitory concentration (MIC) [7] | minimum inhibitory concentration (MIC) [8] | minimum inhibitory concentration (MIC) (CANDIDA ALBICANS CCH 442) | minimum inhibitory concentration (MIC) [9] | minimum inhibitory concentration (MIC) [10] | minimum inhibitory concentration (MIC) [11] | minimum inhibitory concentration (MIC) [12] | minimum inhibitory concentration (MIC) (EN[…] ATCC 8043) | minimum inhibitory concentration (MIC) [13] | minimum inhibitory concentration (MIC) [14] | minimum inhibitory concentration (MIC) [15] | further results
1 | CC[C@H]1OC(=O)[C@H](C)C[C@H](C)[C@@H](O[C@@H]2O[C@H](C)C[C@H](N(C)C)[C@H]2O)[C@](C)(OC)C[C@@H](C)C(=O)[C@H](C)[C@H]2N(CCc3ccc(Oc4ccccc4)cc3)C(=O)O[C@]12C [Ex. 5] | > 100 | > 100 | 1.56 | > 100 | > 100 | 6.2 | 12.5 | 1.56 | 25 | > 100 | > 100 | 100 | 25 | 12.5 | 6.2 | 6.2 | 1.56 | 3.1 | > 100 | 12.5 | minimum inhibitory concentration (MIC) (ESCHERICHIA COLI KNK 437; [18]): > 100; minimum inhibitory concentration (MIC) [16]: 3.1; minimum inhibitory concentration (MIC) [17]: 1.56; minimum inhibitory concentration (MIC) (M[…] ATCC 9341): 3.1; minimum inhibitory concentration (MIC) (M[…] ATCC 4698): 1.56
2 | CC[C@H]1OC(=O)[C@H](C)[C@@H](O[C@H]2C[C@@](C)(OC)[C@@H](O)[C@H](C)O2)[C@H](C)[C@@H](O[C@@H]2O[C@H](C)C[C@H](N(C)C)[C@H]2O)[C@](C)(O)C[C@@H](C)C(=O)[C@H](C)[C@@H](O)[C@]1(C)O [Ery A, Erythromycin A, reference compound] | 100 | > 100 | 0.02 | 100 | 25 | 1.56 | 100 | 0.02 | > 100 | 100 | 1.56 | > 100 | > 100 | 0.2 | > 100 | 0.2 | 0.05 | 6.2 | > 100 | 0.1 | minimum inhibitory concentration (MIC) (ESCHERICHIA COLI KNK 437): 100; minimum inhibitory concentration (MIC) [16]: 0.05; minimum inhibitory concentration (MIC) [17]: 0.02; minimum inhibitory concentration (MIC) (M[…] ATCC 9341): 0.02; minimum inhibitory concentration (MIC) (M[…] ATCC 4698): 0.2
3 | CC[C@H]1OC(=O)[C@H](C)C[C@H](C)[C@@H](O[C@@H]2O[C@H](C)C[C@H](N(C)C)[C@H]2O)[C@](C)(OC)C[C@@H](C)C(=O)[C@H](C)[C@H]2OC(=O)O[C@@]21C [Ex. 3] | > 100 | > 100 | 0.2 | > 100 | > 100 | 3.1 | > 100 | 0.2 | > 100 | > 100 | > 100 | > 100 | > 100 | 3.1 | > 100 | 3.1 | 0.78 | 0.78 | > 100 | 6.2 | minimum inhibitory concentration (MIC) (ESCHERICHIA COLI KNK 437; [18]): > 100; minimum inhibitory concentration (MIC) [16]: 0.2; minimum inhibitory concentration (MIC) [17]: 0.2; minimum inhibitory concentration (MIC) (M[…] ATCC 9341): 0.78; minimum inhibitory concentration (MIC) (M[…] ATCC 4698): 0.78

Reference: patent US5747466A, “3-deoxy-3-descladinose derivatives of erythromycins A and B” (Abbott Laboratories, priority 1996, dated 1998)
